Assay results reported in patent publication US9387238B2, “CDCA1 epitope peptides and vaccines containing the same” (OncoTherapy Science, Inc., priority 2008, dated 2016).

Key:
[1] = system: peptide-pulsed A24LCL cells; test: IFN-gamma ELISPOT assay on CTLs induced with CDCA1 peptides; format: cell-based, human; conditions: CTLs from HLA-A*2402 positive donor vs peptide-pulsed target cells, compared with the control
Text: Monocyte-derived dendritic cells (DCs) were used as antigen-presenting cells (APCs) to induce cytotoxic T lymphocyte (CTL) responses against peptides presented on human leukocyte antigen (HLA). DCs were generated in vitro as described elsewhere (Nakahara S et al., Cancer Res 2003 Jul. 15, 63(14): 4112-8). Specifically, peripheral blood mononuclear cells (PBMCs) isolated from a normal volunteer (HLA-A*2402 positive) by Ficoll-Plaque (Pharmacia) solution were separated by adherence to a plastic tissue culture dish (Becton Dickinson) so as to enrich them as the monocyte fraction. The monocyte-enriched population was cultured in the presence of 1000 U/ml of granulocyte-macrophage colony-stimulating factor (GM-CSF) (R&D System) and 1000 U/ml of interleukin (IL)-4 (R&D System) in AIM-V Medium (Invitrogen) containing 2% heat-inactivated autologous serum (AS). After 7 days of culture, the cytokine-induced DCs were pulsed with 20 micro g/ml of each of the synthesized peptides in the presence of 3 micro g/ml of beta 2-microglobulin for 3 hr at 37 degrees C. in AIM-V Medium. The generated cells appeared to express DC-associated molecules, such as CD80, CD83, CD86 and HLA class II, on their cell surfaces (data not shown). These peptide-pulsed DCs were then inactivated by Mitomycin C (MMC) (30 micro g/ml for 30 min) and mixed at a 1:20 ratio with autologous CD8+ T cells, obtained by positive selection with CD8 Positive Isolation Kit (Dynal). These cultures were set up in 48-well plates (Corning); each well contained 1.5×10^4 peptide-pulsed DCs, 3×10^5 CD8+ T cells and 10 ng/ml of IL-7 (R&D System) in 0.5 ml of AIM-V/2% AS medium. Three days later, these cultures were supplemented with IL-2 (CHIRON) to a final concentration of 20 IU/ml. On day 7 and 14, the T cells were further stimulated with the autologous peptide-pulsed DCs. The DCs were prepared each time by the same way described above. CTL was tested against peptide-pulsed A24LCL cells after the 3rd round of peptide stimulation on day 21 (Tanaka H et al., Br J Cancer 2001 Jan. 5, 84(1): 94-9; Umano Y et al., Br J Cancer 2001 Apr. 20, 84(8): 1052-7; Uchida N et al., Clin Cancer Res 2004 Dec. 15, 10(24): 8577-86; Suda T et al., Cancer Sci 2006 May, 97(5): 411-9; Watanabe T et al., Cancer Sci 2005 August, 96(8): 498-506).
(§1) To examine specific CTL activity, interferon (IFN)-gamma enzyme-linked immunospot (ELISPOT) assay and IFN-gamma enzyme-linked immunosorbent assay (ELISA) were performed. Specifically, peptide-pulsed A24LCL (1×10^4/well) was prepared as stimulator cells. Cultured cells in 48 wells were used as responder cells. IFN-gamma ELISPOT assay and IFN-gamma ELISA assay were performed under manufacture procedure.

[2] = system: peptide-pulsed A24LCL cells; test: IFN-gamma ELISA assay on CTL lines established with CDCA1 peptides; format: cell-based, human; conditions: CTL line vs peptide-pulsed target cells, compared with target cells not pulsed
Description: CTLs were expanded in culture using the method similar to the one described by Riddell et al. (Walter E A et al., N Engl J Med 1995 Oct. 19, 333(16): 1038-44; Riddell S R et al., Nat Med 1996 February, 2(2): 216-23). A total of 5×10^4 CTLs were suspended in 25 ml of AIM-V/5% AS medium with 2 kinds of human B-lymphoblastoid cell lines, inactivated by MMC, in the presence of 40 ng/ml of anti-CD3 monoclonal antibody (Pharmingen). One day after initiating the cultures, 120 IU/ml of IL-2 were added to the cultures. The cultures were fed with fresh AIM-V/5% AS medium containing 30 IU/ml of IL-2 on days 5, 8 and 11 (Tanaka H et al., Br J Cancer 2001 Jan. 5, 84(1): 94-9; Umano Y et al., Br J Cancer 2001 Apr. 20, 84(8): 1052-7; Uchida N et al., Clin Cancer Res 2004 Dec. 15, 10(24): 8577-86; Suda T et al., Cancer Sci 2006 May, 97(5): 411-9; Watanabe T et al., Cancer Sci 2005 August, 96(8): 498-506).
as §1

[3] = system: COS7 cells transfected with CDCA1 and HLA-A*2402; test: Specific CTL activity against target cells exogenously expressing CDCA1 and HLA-A*2402; format: cell-based
Text: The cDNA encoding an open reading frame of target genes or HLA-A24 was amplified by PCR. The PCR-amplified product was cloned into pCAGGS vector. The plasmids were transfected into COS7, which is the target genes and HLA-A24-null cell line, using lipofectamine 2000 (Invitrogen) according to the manufacturer's recommended procedures. After 2 days from transfection, the transfected cells were harvested with versene (Invitrogen) and used as the target cells (5×10^4 cells/well) for CTL activity assay.
The established CTL lines raised against these peptides were examined for their ability to recognize target cells that exogenously express CDCA1 and HLA-A*2402 molecule. Specific CTL activity against COS7 cells which transfected with both the full length of CDCA1 and HLA-A*2402 molecule gene (a specific model for the target cells that exogenously express CDCA1 and HLA-A*2402 gene) was tested using the CTL lines raised by corresponding peptide as the effecter cells. COS7 cells transfected with either full length of CDCA1 genes or HLA-A*2402 were prepared as control.

[4] = system: target cells pulsed with peptide; test: IFN-gamma ELISA assay on CTL clone established by limiting dilution; format: cell-based, human; conditions: CTL clone by limiting dilution vs peptide-pulsed target cells, compared with the control
Description: The dilutions were made to have 0.3, 1, and 3 CTLs/well in 96 round-bottomed micro titer plate (Nalge Nunc International). CTLs were cultured with 1×10^4 cells/well of 2 kinds of human B-lymphoblastoid cell lines, 30 ng/ml of anti-CD3 antibody, and 125 U/ml of IL-2 in a total of 150 micro 1/well of AIM-V Medium containing 5% AS. 50 micro 1/well of IL-2 were added to the medium 10 days later so to reach a final concentration of 125 U/ml IL-2. CTL activity was tested on the 14th day, and CTL clones were expanded using the same method as described above (Uchida N et al., Clin Cancer Res 2004 Dec. 15, 10(24): 8577-86; Suda T et al., Cancer Sci 2006 May, 97(5): 411-9; Watanabe T et al., Cancer Sci 2005 August, 96(8): 498-506).
as §1

Row | Sequence | IFN-gamma production of induced CTLs (ELISPOT) [1] | IFN-gamma production of CTL line (ELISA) [2] | specific CTL activity ([3]; CTL clone vs COS7 cells transfected with both CDCA1 and HLA-A*2402) | specific CTL activity ([3]; CTL clone vs target cells expressing either HLA-A*2402 or CDCA1 (controls)) | IFN-gamma production of CTL clone (ELISA) [4]
1 | IYMRALQIVY [SEQ ID NO: 11, 10-mer peptide derived from CDCA1, start position 48] | potent IFN-gamma production | potent IFN-gamma production | – | – | –
2 | RFLSGIINFI [SEQ ID NO: 3, 10-mer peptide derived from CDCA1, start position 119] | potent IFN-gamma production | potent IFN-gamma production | – | – | –
3 | MYPHLMEGFL [SEQ ID NO: 2, 10-mer peptide derived from CDCA1, start position 74] | no specific IFN-gamma production | no specific IFN-gamma production | – | – | –
4 | SFPRYNVAEI [SEQ ID NO: 14, 10-mer peptide derived from CDCA1, start position 5] | potent IFN-gamma production | potent IFN-gamma production | – | – | –
5 | VYGIRLEHF [SEQ ID NO: 23, 9-mer peptide derived from CDCA1, start position 56] | potent IFN-gamma production | potent IFN-gamma production | high specific CTL activity | no significant specific CTL activity | potent IFN-gamma production
6 | RYNVAEIVI [SEQ ID NO: 22, 9-mer peptide derived from CDCA1, start position 8] | potent IFN-gamma production | potent IFN-gamma production | – | – | –
7 | KTEENSFKRL [SEQ ID NO: 4, 10-mer peptide derived from CDCA1, start position 335] | potent IFN-gamma production | potent IFN-gamma production | – | – | –
